Entries after “also recorded” stand apart in the source; their conditions may differ. Read-outs that look alike come from different tables or passages of the source.
Assays:
[1] = Water solubility / hydrophobicity; type: physicochemical
CIA = details: 10 mg/kg, cited from earlier work
TRPM4 = TRPM4 (Homo sapiens, UniProt Q8TD43); details: cited from earlier work
OCL formation = experiment: OCL (osteoclast) formation assay; type: cell-based
[2] = test system: serum inflammatory cytokines; experiment: Serum analysis for cytokines in CIA mice (V-PLEX panels); type: in vivo, mouse
Protocol: Heart blood at sacrifice, 40 days, was used for analysis. Plasma was separated by centrifiigation and frozen in aliquots at −20° C. until used. Production of anti-CII antibodies was evaluated by ELISA (Rheumera, Astarte Biologies, Redmond, Wash.). Production of cytokines was evaluated using V-PLEX panels in 96-well plates (Meso Scale Discovery, Rockville, Md.).

[3] = test system: human or murine osteoclasts; details: earlier study (ref 5), cited from earlier work
[4] = General health of treated CIA mice (weight, activity); type: in vivo, mouse; details: about three weeks of DCPA
Protocol: Male DBA/1 mice were used, from Harlan Laboratories, Frederick Md. […] Briefly, type II collagen (CII) was injected in complete Freund's adjuvant at 100 μg per animal (˜4 μg/kg) at day 1 and, after 21 days, a booster dose of 100 μg C II in Freund's incomplete adjuvant. Inflammation was apparent 4-8 days after the second dose, in 80% of treated joints. […] Mice were monitored for arthritis and scored in a blinded manner. Swelling of paws was be graded on scale from 0 to 4 indicating number of swollen digits. All paws were evaluated, so that the maximal arthritic index per mouse was 16. Additionally, hind paw swelling was measured using digital calipers on day 0, and each day on days 23-40. Analysis of the bones and joints for arthritis was done on H&E stained sections of hind paws, by blinded observation. This scored synovial expansion and inflammation, joint damage including pannus, and bone degradation, each on a scale of 0-3, with maximum score of 9. […] For histological analysis, two paws from each animal were analyzed separately and blindly, and are calculated as two specimens per animal; however, if averages are used with n=animal number, there was no effect on differences (not shown).

[5] = test system: collagen-induced arthritis (CIA); experiment: Collagen-induced arthritis (CIA) in mice, blinded arthritic index and paw swelling; type: in vivo, mouse; details: DCPA 21 mg/kg/day
Protocol: Effects on swelling, inflammatory cell invasion in joints, serum cytokines and bone erosion were measured.
Male DBA/1 mice were used, from Harlan Laboratories, Frederick Md. […] Briefly, type II collagen (CII) was injected in complete Freund's adjuvant at 100 μg per animal (˜4 μg/kg) at day 1 and, after 21 days, a booster dose of 100 μg C II in Freund's incomplete adjuvant. […] Mice were monitored for arthritis and scored in a blinded manner. Swelling of paws was be graded on scale from 0 to 4 indicating number of swollen digits. All paws were evaluated, so that the maximal arthritic index per mouse was 16. Additionally, hind paw swelling was measured using digital calipers on day 0, and each day on days 23-40. Analysis of the bones and joints for arthritis was done on H&E stained sections of hind paws, by blinded observation. This scored synovial expansion and inflammation, joint damage including pannus, and bone degradation, each on a scale of 0-3, with maximum score of 9.

[6] = test system: osteoclasts and CD3 T cells in tissue sections; experiment: Antibody labeling of sections (anti-ATPa3/TCIRG osteoclasts, anti-CD3 T cells) in CIA mice; type: in vivo, mouse; details: high dose CIA/DCPA relative to CIA/placebo
Protocol: Antibodies used were, for TCIRGI, mouse monoclonal (clone 6H3) antibody (Sigma-Aldrich) at 1:100 dilution. For CD3, anti-CD3 mouse monoclonal antibody (PC3/188A) against synthetic peptide spanning amino acids 156-168 of the cytoplasmic domain of human CD3-ε chain was used, at 1:100 dilution. Briefly, sections were blocked in PBS with 2% hydrogen peroxide for 5 minutes and then in PBS with 2% BSA for two hours, then reacted overnight with antibodies at indicated concentrations in PBS with 0.01% tween 20, and after washing with biotinylated anti-mouse at 1:1000 dilution. Then streptavidin-horseradish peroxidase, and diaminobenzidine substrate were added. Hematoxylin and eosin counterstain was use to show tissue features. Imaging used a Nikon TE2000 inverted microscope, with 14-bit 2048×2048 pixel monochrome CCD and RGB filters to reconstruct color (Spot, Sterling Heights, Mich.).

[7] = test system: collagen-induced arthritis (CIA); experiment: Micro-computed tomography and morphometry of paws in CIA mice; type: in vivo, mouse; details: high dose CIA/DCPA (21 mg)
Protocol: Analysis by micro-computed tomography was as described (14). In brief, paws fixed in Millonig's solution were scanned on a Viva CT40 instrument (Scanco, Bassersdorf, Switzerland) with three-dimensional reconstruction by the manufacturer's instrument-specific software. The scan section increment was 20 μm; 3-D reconstruction used a density cutoff of 211 mg/cm^3. Analysis of trabecular thickness and trabecular spacing used the plate model.

[8] = humans, cited from earlier work
[9] = test system: collagen-induced arthritis (CIA); experiment: Histology of H&E stained hind paw sections in CIA mice, blinded score; type: in vivo, mouse
Protocol: Male DBA/1 mice were used, from Harlan Laboratories, Frederick Md. […] Briefly, type II collagen (CII) was injected in complete Freund's adjuvant at 100 μg per animal (˜4 μg/kg) at day 1 and, after 21 days, a booster dose of 100 μg C II in Freund's incomplete adjuvant. […] Mice were monitored for arthritis and scored in a blinded manner. Swelling of paws was be graded on scale from 0 to 4 indicating number of swollen digits. All paws were evaluated, so that the maximal arthritic index per mouse was 16. Additionally, hind paw swelling was measured using digital calipers on day 0, and each day on days 23-40. Analysis of the bones and joints for arthritis was done on H&E stained sections of hind paws, by blinded observation. This scored synovial expansion and inflammation, joint damage including pannus, and bone degradation, each on a scale of 0-3, with maximum score of 9. […] For histological analysis, two paws from each animal were analyzed separately and blindly, and are calculated as two specimens per animal; however, if averages are used with n=animal number, there was no effect on differences (not shown).
Hind paws of animals were decalcified, paraffin embedded, cut, and stained with hematoxylin and eosin (FIGS. 2A-C). […] Therefore, blinded qualitative grading was used. […]

[10] = target: CRAC channel (STIM1/Orail) (Homo sapiens, UniProt Q96D31); details: by destabilizing STIM1/Orail interaction; Zhou et al., 2011; cited from earlier work
CRAC channel (STIM1/Orail), sequence (Q96D31 whole entry): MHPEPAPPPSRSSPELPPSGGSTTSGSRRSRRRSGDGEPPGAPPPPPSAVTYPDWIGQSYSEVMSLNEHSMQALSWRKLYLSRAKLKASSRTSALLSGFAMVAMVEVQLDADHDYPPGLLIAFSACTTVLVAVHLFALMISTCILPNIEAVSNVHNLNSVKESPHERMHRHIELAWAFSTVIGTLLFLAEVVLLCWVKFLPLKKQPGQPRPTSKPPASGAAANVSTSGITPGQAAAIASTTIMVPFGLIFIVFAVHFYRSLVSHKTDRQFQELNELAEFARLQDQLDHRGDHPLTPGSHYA

TRPM4, sequence (Q8TD43 whole entry, species assumed): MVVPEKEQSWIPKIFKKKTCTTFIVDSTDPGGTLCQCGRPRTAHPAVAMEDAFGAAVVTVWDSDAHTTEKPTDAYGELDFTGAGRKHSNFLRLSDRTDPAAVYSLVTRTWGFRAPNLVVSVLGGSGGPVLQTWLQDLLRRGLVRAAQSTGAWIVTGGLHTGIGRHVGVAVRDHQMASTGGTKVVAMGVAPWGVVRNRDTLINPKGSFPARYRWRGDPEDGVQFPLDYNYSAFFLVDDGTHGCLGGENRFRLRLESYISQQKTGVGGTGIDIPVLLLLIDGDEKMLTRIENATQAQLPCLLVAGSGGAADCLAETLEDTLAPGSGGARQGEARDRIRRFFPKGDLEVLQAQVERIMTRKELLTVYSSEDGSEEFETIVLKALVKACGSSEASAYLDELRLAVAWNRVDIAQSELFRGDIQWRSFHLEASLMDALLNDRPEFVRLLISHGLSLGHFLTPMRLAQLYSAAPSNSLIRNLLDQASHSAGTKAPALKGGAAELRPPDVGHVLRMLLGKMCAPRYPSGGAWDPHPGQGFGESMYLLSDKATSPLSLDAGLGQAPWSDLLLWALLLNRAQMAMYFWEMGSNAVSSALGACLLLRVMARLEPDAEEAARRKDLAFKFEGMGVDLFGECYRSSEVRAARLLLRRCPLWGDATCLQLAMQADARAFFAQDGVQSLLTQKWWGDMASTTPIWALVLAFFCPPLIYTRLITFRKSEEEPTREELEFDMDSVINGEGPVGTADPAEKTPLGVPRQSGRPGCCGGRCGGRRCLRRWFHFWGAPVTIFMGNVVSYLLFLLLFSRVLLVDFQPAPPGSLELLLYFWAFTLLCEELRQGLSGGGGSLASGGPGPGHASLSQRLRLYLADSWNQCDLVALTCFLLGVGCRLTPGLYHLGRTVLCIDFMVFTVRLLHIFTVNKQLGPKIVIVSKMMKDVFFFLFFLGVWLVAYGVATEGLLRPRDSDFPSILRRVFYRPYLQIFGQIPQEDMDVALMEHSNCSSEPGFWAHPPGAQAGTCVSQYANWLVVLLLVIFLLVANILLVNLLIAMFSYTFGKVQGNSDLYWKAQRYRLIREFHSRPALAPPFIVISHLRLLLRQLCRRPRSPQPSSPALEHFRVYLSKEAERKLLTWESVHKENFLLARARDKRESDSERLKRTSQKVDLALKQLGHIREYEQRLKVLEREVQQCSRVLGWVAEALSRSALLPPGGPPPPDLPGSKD

O=C(O)CC(=O)Nc1ccc(Cl)c(Cl)c1 [DCOPA, 3-(3,4-dichloroanilino)-3-oxopropanoic acid]
water solubility compared with DCPA [1]: more water soluble compound than DCPA

Cc1nnsc1C(=O)Nc1ccc(-n2nc(C(F)(F)F)cc2C(F)(F)F)cc1 [BTP-2, 4-methy-4-[3,5-bis(trifluorometliyl)-1H-pyrazol-1-yl]-1,2,3-thiadiazole-5-carboxanilide]
inflammatory cytokines IL1, IL6 and TNF-α (CIA; 10 days after induction): near-baseline levels
effect on CIA (CIA): suppressed CIA
concentration suppressing cytokines including 1L2 and calcium influx by TRPM4 (TRPM4): low nanomolar concentrations

N-methyl-DCPA [N-MeDCPA]
hydrophobicity [1]: very hydrophobic
toxicity compared with DCPA (OCL formation; OCL assay findings): less toxic than DCPA
effect in OCL assay compared with DCPA (OCL formation; same doses as DCPA, took longer): looked as good as DCPA

CCC(=O)Nc1ccc(Cl)c(Cl)c1 [DCPA, N-(3,4-dichlorophenyl)propanamide]
effect on serum cytokines (TNF-α, IL-1, IL-6, CXCL1, IFN-γ) ([2]; DCPA 21 mg/kg/day, day 40 serum, vs CIA/placebo): no effect; also recorded: did not affect
effect on cytokine production of IL-12p70 or IL-10 ([2]; DCPA, serum of CIA mice): did not significantly affect
osteoclast differentiation / formation in vitro [3]: inhibits osteoclast formation in vitro
osteoclast differentiation / formation in vitro ([3]; listed as 3,4-dichloropropionaniline): reduced differentiation of bone degrading osteoclasts
adverse effects on animal weight or activity [4]: no adverse effects
overall swelling of joints [5]: reduced by a similar amount
time of maximal effect after collagen booster [5]: 12 to 17 days
osteoclast surface area (ATPa3 labeling) [6]: large and statistically significant reduction
bone volume/total volume by micro-CT ([7]; p=0.03 vs CIA/placebo): statistically greater than CIA/placebo animals
bone density by micro-CT ([7]; sacrifice day 40): indistinguishable from untreated controls
toxicity of intermittent exposure in mg/kg quantities [8]: minimal apparent toxicity
dose that can cause fatal methemoglobinemia ([8]; massive doses): 4000 to 5000 mg/kg
reduction of bone and cartilage damage in sections of animal feet ([9]; DCPA 21 mg/kg/day): −50%
histological damage score ([9]; ankle bone of one animal, high dose CIA/DCPA (21 mg DCPA), 40 days, scale 0-9): 4
CRAC channel activation [10]: inhibits CRAC channel activation

CN(C(=O)CC(=O)O)c1ccc(Cl)c(Cl)c1 [N-MeDCOPA]
inhibition of OCL formation (OCL formation; 100 μM): shows inhibition of OCL formation
